Literature values in article PMC3693451 (Bioorganic & medicinal chemistry letters, 2011).

Experiments:
[1] = 214 targets
human CB1 = settings: read-out: human CB1 Ki
[2] = test system: chronic neuropathic and inflammatory pain; settings: rat
[3] = test system: rat CB1, human CB1 and human CB2 receptors
CB receptors [4] = settings: read-out: Ki at both CB receptors
CB receptors [5] = test system: CB receptors

Compound | selectivity for CB receptors in target screen [1] | Ki (human CB1) | effect in chronic neuropathic and inflammatory pain models [2] | agonist properties in [35S]GTPγS binding assays [3] | neuroprotective properties | Ki (CB receptors [4]) | agonist type at both CB receptors (CB receptors [5])
N#Cc1c(Oc2cccc(OS(=O)(=O)CCCC(F)(F)F)c2)cccc1C(F)(F)F [BAY 59–3074] | no significant interactions with other targets | 0.0483 µM | pronounced antihyperalgesic and antiallodynic properties | partial agonist |  |  | 
O=S(=O)(CCCC(F)(F)F)Oc1cccc(Oc2cccc3c2C[C@H](CO)C3)c1 [BAY 38–7271, (−)-(R)-3-(2-hydroxymethylindanyl-4-oxy)phenyl-4,4,4-trifluoro-1-sulfonate] |  |  |  |  | pronounced neuroprotective properties | 0.00046 to 0.00185 µM | full agonist
